Measurements: patent US10980782B2

Columns and labels:
Format in all cases: in vivo
[1] = test system: human colorectal cancer HCT-15; test: Human tumor xenograft in nude mice, tumor inhibition rate, HCT-15; settings: HCT-15 xenograft
Experimental: (§1) 1) Number of animals: there are 6 nude mice for each experimental group and positive control group; weighing: 20-21 g.
(§2) 2) Dosage and regimen of administration: the dose is described in the portion of the experimental results. The injection volume is 0.2 ml/mouse.
(§3) 3) Control groups: the negative control is the corresponding vehicle. The positive control is taxol which is a widely clinically used antitumor drug.
(§4) Under aseptic conditions, a tumor source with vigorous growth was taken to prepare a cell suspension of about 1-3×10^7/ml by a homogenization method. The suspension was injected subcutaneously into subaxillary region of nude mice at 0.2 ml/mouse. The drug was administered upon the tumor touchable. The drug was administered according to the regime. The animals in each group were sacrificed after the administration of three to four weeks. The tumors were taken and weighed, and the tumor inhibition rate was calculated according to the following formula: Tumor inhibition rate %=[(average tumor weight of the negative control group−average tumor weight of the compound administered group)/average tumor weight of the negative control group)×100%

[2] = test system: human liver cancer Hep-G2; test: Human tumor xenograft in nude mice, tumor inhibition rate, Hep-G2
Experimental: as §1, §2, §3, §4

human lung cancer A549 = test: Human tumor xenograft in nude mice, tumor inhibition rate, A549; settings: alone at 50 mg/kg/d, iv×3, q3d
[3] = test system: human prostate cancer PC-3; test: Human tumor xenograft in nude mice, tumor inhibition rate, PC-3; settings: PC-3 xenograft, 10 mg/kg/time, iv×7qd
Experimental: 1) Number of animals: there are 6 nude mice for each experimental group and positive control group; weighing: 20-21 g. The negative control has two groups.
as §2, §3, §4

**Q.** Which tumor inhibition rate ([1]; alone at 15 mg/kg/d, iv×7, qd) does the source give for `O=c1[nH]cc(F)c(=O)[nH]1` [5 Fu, 5-fluorouracil] here?
**A.** 42.71%

**Q.** Which tumor inhibition rate ([2]; alone at 1 mg/kg/d, iv×7, qd) does the source give for `N.N.[Cl][Pt][Cl]` [DDP, Cisplatin] here?
**A.** 45.33%

**Q.** `Nc1ccn([C@@H]2O[C@H](CO)[C@@H](O)C2(F)F)c(=O)n1` [Gemcitabine] was tested. Which tumor inhibition rate (human lung cancer A549) did it give?
**A.** 39.23%

**Q.** How did the tumor inhibition rate ([2]; 10 mg/kg/time, iv×7qd) turn out when `CC(=O)O[C@H]1C(=O)[C@@]2(C)[C@H]([C@H](OC(=O)c3ccccc3)[C@]3(O)C[C@H](OC(=O)[C@H](O)[C@@H](NC(=O)c4ccccc4)c4ccccc4)C(C)=C1C3(C)C)[C@]1(OC(C)=O)CO[C@@H]1C[C@@H]2O` [taxol] was run?
**A.** 52.2%

**Q.** What about the tumor inhibition rate ([1]; 10 mg/kg/time, iv×7qd) of the same molecule?
**A.** 52.2%

**Q.** And the tumor inhibition rate [3]?
**A.** 41.31%
